Results as given in US20080312301A1, “Substituted N-Benzo[D]Isoxazol-3-Yl-Amine Compounds as Inhibitors of Mglur5, Serotonin (5-Ht) and Noradrenaline Receptors, and Uses Thereof” (Gruenenthal GmbH, priority 2005, published 2008).

How the values were obtained:
NA transporter = target: T1, NA transporter (Rattus norvegicus, UniProt Q63380); experiment: Noradrenaline (NA) uptake inhibition in rat brain synaptosomes (hypothalamus), [3H]-NA; type: biochemical; settings: conc. 10 μM
T1 construct: from tissue; host or cells: rat hypothalamus synaptosomes (P2 fraction)
T1 sequence (Q63380 1-617): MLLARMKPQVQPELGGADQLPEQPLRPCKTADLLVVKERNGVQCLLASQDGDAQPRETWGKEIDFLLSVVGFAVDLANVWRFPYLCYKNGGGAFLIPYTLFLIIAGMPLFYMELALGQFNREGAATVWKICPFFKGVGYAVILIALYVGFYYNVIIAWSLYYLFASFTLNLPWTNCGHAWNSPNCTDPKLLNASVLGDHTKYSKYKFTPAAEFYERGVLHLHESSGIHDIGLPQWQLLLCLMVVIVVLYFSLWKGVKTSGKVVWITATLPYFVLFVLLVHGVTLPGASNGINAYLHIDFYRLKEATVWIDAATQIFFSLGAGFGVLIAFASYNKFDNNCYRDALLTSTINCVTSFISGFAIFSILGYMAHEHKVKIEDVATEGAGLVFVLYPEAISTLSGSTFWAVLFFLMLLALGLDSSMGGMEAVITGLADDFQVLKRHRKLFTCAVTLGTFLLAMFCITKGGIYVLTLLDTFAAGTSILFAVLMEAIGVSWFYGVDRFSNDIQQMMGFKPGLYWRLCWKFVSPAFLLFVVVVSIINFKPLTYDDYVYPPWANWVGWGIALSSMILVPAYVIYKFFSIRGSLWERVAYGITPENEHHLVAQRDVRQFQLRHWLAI
From the text: (§1) I. Method for Determining the Noradrenaline and 5HT Uptake Inhibition:
(§2) For in vitro studies, synaptosomes were freshly isolated from rat brain areas as described in the publication “The isolation of nerve endings from brain” by E. G. Gray and V. P. Whittaker, J. Anatomy 96, pages 79-88, 1962. The corresponding literature description is introduced hereby as reference and forms part of the disclosure.
(§3) The tissue (hypothalamus for determining the noradrenaline uptake inhibition and medulla and pons for determining the 5HT uptake inhibition) was homogenized in ice-cold 0.32 M sucrose (100 mg of tissue/1 ml) in a glass homogenizer with Teflon pestle using five full up and down strokes at 840 revolutions/minute. The homogenate was centrifuged at 1000 g and at 4° C. for 10 minutes. After subsequent centrifugation at 17 000 g for 55 minutes, the synaptosomes (P2 fraction) are obtained and were resuspended in 0.32 M […] (0.5 ml/100 mg of the original weight).
(§4) The respective uptake was measured in a 96-well microtiter plate. The volume was 250 μl and incubation took place at room temperature (approx. 20-25° C.) under an O2 atmosphere.
(§5) The incubation time was 7.5 minutes for [^3H]-NA and 5 minutes for [^3H]-5-HT. The 96 samples were then filtered through a Unifilter GF/B® microtiter plate (Packard) and washed with […] of incubated buffer using a “Brabdel MPXRI-96T Cell Harvester”. The Unifilter GF/B plate was dried at 55° C. for 1 h. The plate was then sealed with a Back Seal® (Packard) and 35 μl of scintillation fluid were added per well (Ultima Gold®, Packard). After sealing with a top Seal® (Packard), the radioactivity was determined, after equilibrium had been reached (about 5 h), in a “Trilux 1450 Microbeta” (Wallac).
The following characteristic data were found for the NA transporter:
(§6) The amount of protein employed in the above determination corresponded to the value disclosed in the literature, as described for example in “Protein measurement with the folin phenol reagent”, Lowry et al., J. Biol. Chem., 193, 265-275, 1951. A detailed description of the method can also be found in the literature, for example from M. Ch. Frink, H.-H. Hennies, W. Engelberger, M. Haurand and B. Wilffert (1996) Arzneim.-Forsch./Drug Res. 46 (III), 11, 1029-1036. The corresponding literature descriptions are hereby introduced as reference and form part of the disclosure.

[1] = target: T2, 5-HT uptake (serotonin reuptake) (Rattus norvegicus, UniProt P31652); experiment: 5HT uptake inhibition in rat brain synaptosomes (medulla and pons), [3H]-5-HT; type: biochemical; settings: for inhibition at 10 µM: conc. 10 μM
T2 construct: from tissue; host or cells: rat medulla and pons synaptosomes (P2 fraction)
T2 sequence (P31652 whole entry): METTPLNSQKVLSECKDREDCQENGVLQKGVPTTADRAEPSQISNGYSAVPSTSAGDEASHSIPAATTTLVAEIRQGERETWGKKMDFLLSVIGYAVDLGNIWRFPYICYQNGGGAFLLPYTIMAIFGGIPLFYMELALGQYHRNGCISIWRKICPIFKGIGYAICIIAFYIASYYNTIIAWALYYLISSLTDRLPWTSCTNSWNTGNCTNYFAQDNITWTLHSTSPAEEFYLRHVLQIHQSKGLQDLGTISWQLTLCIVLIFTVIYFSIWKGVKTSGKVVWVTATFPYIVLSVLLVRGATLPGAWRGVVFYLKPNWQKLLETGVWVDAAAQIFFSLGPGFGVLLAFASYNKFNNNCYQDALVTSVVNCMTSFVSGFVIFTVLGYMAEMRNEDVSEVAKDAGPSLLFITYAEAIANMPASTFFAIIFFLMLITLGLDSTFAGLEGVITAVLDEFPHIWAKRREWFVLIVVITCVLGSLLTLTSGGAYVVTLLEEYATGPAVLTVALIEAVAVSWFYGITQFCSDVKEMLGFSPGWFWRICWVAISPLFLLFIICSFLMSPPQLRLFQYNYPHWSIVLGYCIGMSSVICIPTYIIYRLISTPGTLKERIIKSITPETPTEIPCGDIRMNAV
From the text: as §1, §2, §3, §4, §5, §6

mGluR5 receptor = target: T3, mGluR5 receptor (Sus scrofa, UniProt I3LUI7); experiment: Affinity for the mGluR5 receptor: displacement of 3[H]-MPEP binding in pig brain homogenate; settings: 10 μM compound, 5 nM 3[H]-MPEP
T3 construct: 450 μg of protein from brain homogenate are incubated with 5 nM^3[H]-MPEP; from tissue; host or cells: pig brain hemispheres without medulla, cerebellum and pons
T3 sequence (I3LUI7 19-1212): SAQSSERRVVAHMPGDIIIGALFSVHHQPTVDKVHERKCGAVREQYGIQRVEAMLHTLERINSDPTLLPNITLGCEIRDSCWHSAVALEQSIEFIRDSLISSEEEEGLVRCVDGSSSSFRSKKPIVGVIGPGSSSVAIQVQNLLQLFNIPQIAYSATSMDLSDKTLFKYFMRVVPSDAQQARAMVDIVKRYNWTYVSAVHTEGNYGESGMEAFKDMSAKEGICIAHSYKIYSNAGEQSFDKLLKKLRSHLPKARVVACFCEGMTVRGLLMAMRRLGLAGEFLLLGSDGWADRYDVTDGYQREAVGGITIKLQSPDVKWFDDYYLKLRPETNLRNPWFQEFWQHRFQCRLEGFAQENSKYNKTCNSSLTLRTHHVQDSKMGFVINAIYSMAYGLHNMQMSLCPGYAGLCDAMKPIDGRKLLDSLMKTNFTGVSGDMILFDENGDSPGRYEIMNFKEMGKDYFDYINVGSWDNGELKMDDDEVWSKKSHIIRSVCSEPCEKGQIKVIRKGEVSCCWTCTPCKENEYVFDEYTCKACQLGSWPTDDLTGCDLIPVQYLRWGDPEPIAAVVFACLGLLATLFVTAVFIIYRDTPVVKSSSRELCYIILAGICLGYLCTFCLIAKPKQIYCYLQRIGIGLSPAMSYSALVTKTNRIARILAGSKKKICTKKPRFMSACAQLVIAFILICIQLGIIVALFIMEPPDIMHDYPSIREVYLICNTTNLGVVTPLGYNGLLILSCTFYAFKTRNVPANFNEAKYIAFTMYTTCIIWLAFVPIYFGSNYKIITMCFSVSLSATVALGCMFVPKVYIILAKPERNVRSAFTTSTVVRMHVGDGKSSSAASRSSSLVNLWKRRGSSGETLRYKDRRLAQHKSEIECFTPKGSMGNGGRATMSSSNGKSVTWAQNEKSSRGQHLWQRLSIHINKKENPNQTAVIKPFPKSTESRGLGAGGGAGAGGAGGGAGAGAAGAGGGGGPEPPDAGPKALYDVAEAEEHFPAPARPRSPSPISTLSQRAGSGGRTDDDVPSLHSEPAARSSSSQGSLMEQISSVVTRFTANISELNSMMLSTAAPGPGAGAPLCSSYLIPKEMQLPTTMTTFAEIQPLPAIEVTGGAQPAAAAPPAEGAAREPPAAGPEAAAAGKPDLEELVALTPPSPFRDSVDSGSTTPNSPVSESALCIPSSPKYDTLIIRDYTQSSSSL
How it was run: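 Pig brain homogenate (450 μg protein) incubated with 5 nM 3[H]-MPEP and test compound at 10 μM for 60 min at room temperature. Displacement of radioligand binding measured after filtration.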

Row | inhibition at 10 µM [1] | Compound | also measured
1 | 86% | CCC(C)C(=O)Nc1noc2cc(Br)ccc12 (stereo not drawn) [Example 25, N-(6-bromobenzo[d]isoxazol-3-yl)-2-methylbutyramide] | –
2 | 82% | O=C(Nc1noc2ccc(F)cc12)c1ccccc1C(F)(F)F [Example 26, N-(5-fluorobenzo[d]isoxazol-3-yl)-2-trifluoromethylbenzamide] | –
3 | 89% | O=C(Nc1noc2ccc(F)cc12)c1ccc(Cl)c(Cl)c1 [Example 27, 3,4-dichloro-N-(5-fluorobenzo[d]isoxazol-3-yl)benzamide] | –
4 | 78% | COc1cccc2onc(NC(=O)c3cc(F)cc(F)c3)c12 [Example 34, 3,5-difluoro-N-(4-methoxybenzo[d]isoxazol-3-yl)benzamide] | –
5 | 84% | O=C(Nc1noc2cccc(OCC(F)(F)F)c12)c1ccccc1Br [Example 36, 2-bromo-N-[4-(2,2,2-trifluoroethoxy)benzo[d]isoxazol-3-yl]benzamide] | inhibition at 10 µM (mGluR5 receptor): 30.3%
6 | 77% | CC(C)(C)c1ccc(C(=O)Nc2noc3cccc(OCC(F)(F)F)c23)cc1 [Example 38, 4-tert-butyl-N-[4-(2,2,2-trifluoroethoxy)benzo[d]isoxazol-3-yl]benzamide] | –

The remaining lines, values behind:

Row | Compound | inhibition at 10 µM [1] | also measured
7 | O=C(Nc1noc2cc(Cl)ccc12)c1cccc(C(F)(F)F)c1F [Example 19, N-(6-chlorobenzo[d]isoxazol-3-yl)-2-fluoro-3-trifluoromethylbenzamide] | 77% | inhibition at 10 µM (NA transporter): 63%
8 | O=C(Nc1noc2cc(Br)ccc12)c1ccccc1C(F)(F)F [Example 23, N-(6-bromobenzo[d]isoxazol-3-yl)-2-trifluoromethyl benzamide] | – | 5 HT uptake inhibition [%] conc. 10 μM [1]: 86%
9 | O=C(Nc1noc2cc(Br)ccc12)C1C2CC3CC(C2)CC1C3 (stereo not drawn) [Example 24, adamantane-2-(6-bromobenzo[d]isoxazol-3-yl)carboxamide] | – | 5 HT uptake inhibition [%] conc. 10 μM [1]: 79%
10 | Cc1ccccc1C(=O)Nc1noc2ccc(F)cc12 [Example 28, N-(5-fluorobenzo[d]isoxazol-3-yl)-2-methylbenzamide] | 91% | inhibition at 10 µM (mGluR5 receptor): 35%
11 | O=C(Nc1noc2ccc(Br)cc12)c1cc(C(F)(F)F)ccc1F [Example 29, N-(5-bromobenzo[d]isoxazol-3-yl)-2-fluoro-5-trifluoromethylbenzamide] | 83% | –
12 | O=C(Nc1noc2ccc(Br)cc12)c1ccc(F)cc1F [Example 30, N-(5-bromobenzo[d]isoxazol-3-yl)-2,4-difluorobenzamide] | 79% | inhibition at 10 µM (mGluR5 receptor): 45.2%
13 | Cc1ccc2onc(NC(=O)c3ccccc3C(F)(F)F)c2c1 [Example 31, N-(5-methylbenzo[d]isoxazol-3-yl)-2-trifluoromethylbenzamide] | 69% | –
14 | Cc1ccc2onc(NC(=O)c3cccc(F)c3)c2c1 [Example 32, 3-fluoro-N-(5-methylbenzo[d]isoxazol-3-yl)benzamide] | 89% | inhibition at 10 µM (mGluR5 receptor): 40.1%
15 | COc1cccc2onc(NC(=O)c3cc(C(F)(F)F)cc(C(F)(F)F)c3)c12 [Example 33, N-(4-methoxybenzo[d]isoxazol-3-yl)-3,5-bistrifluoromethyl benzamide] | – | 5 HT uptake inhibition [%] conc. 10 μM [1]: 85%
16 | CN(C)c1cccc2onc(NC(=O)c3cc(C(F)(F)F)cc(C(F)(F)F)c3)c12 [Example 35, N-(4-dimethylaminobenzo[d]isoxazol-3-yl)-3,5-bistrifluoromethylbenzamide] | 86% | –
17 | O=C(Nc1noc2cccc(OCC(F)(F)F)c12)c1cccc(Cl)c1 [Example 37, 3-chloro-N-[4-(2,2,2-trifluoroethoxy)benzo[d]isoxazol-3-yl]benzamide] | 90% | –
18 | COc1ccccc1C(=O)Nc1noc2cccc(OCC(F)(F)F)c12 [Example 39, 2-methoxy-N-[4-(2,2,2-trifluoroethoxy)benzo[d]isoxazol-3-yl]benzamide] | 82% | inhibition at 10 µM (mGluR5 receptor): 30.5%
